Laboratory results from US20070269420A1, “Compounds, Compositions and Methods for Treatment and Prophylaxis of Hepatitis C Viral Infections and Associated Diseases” (priority 2003, published 2007).

Experiments:
HCV NS4B = molecular target: T1, HCV NS4B (Hepatitis C virus genotype 1b, UniProt Q9WMX2); test: NS4B binding assay (quenching of intrinsic protein fluorescence); conditions: fluorescent binding assay
T1 construct: NS4B was cloned, expressed and purified to establish an assay; made in house
From the text: NS4B was cloned, expressed and purified to establish an assay, which takes advantage of the intrinsic fluorescent properties of proteins and identifies compounds, which inhibit by a NS4B specific mechanism. This protein is necessary for viral replication. It is thought to act as an anchor securing the replication complex to cellular membranes, where replication is known to occur. Several other functions necessary for viral replication have also ascribed to NS4B.

[1] = test system: HCV replicon (BB7 sequence) in Huh-7-Clone A cells; test: HCV replicon NS5A ELISA, inhibition of viral RNA replication; type: cell-based, hepatitis C virus; conditions: measured by Elisa and quantitative RT-PCR, Clone-A cells
Description: Antiviral activity of representative compounds of the invention was evaluated in a human liver-derived cell line (Huh-7-Clone A) containing the HCV replicon (BB7 sequence) (See Lohmann et al. Science. 1999, 285:110-3; Blight K J et al., Science. 2000, 290:1972-4; Pietschmann, T. et al., J. Virol. 2001, 73:1252-1264; and Lohmann, V. et al., J. Virol. 2001, 75:1437-1449). The HCV replicon is a subgenomic viral RNA that expresses the HCV proteins required for its own replication. These proteins include non-structural proteins NS3, NS4A, NS4B, NS5A and NS5B. The replicon also contains a foreign gene encoding a drug-selectable marker (neomycin phosphotransferase) to allow for G418 (neomycin) selection of cells that contain the replicon.
An ELISA (enzyme-linked immunosorbant assay) was used to determine the effect of compounds within the scope of the invention on the amount of HCV NS5A protein produced after a 72-hour incubation of the replicon-containing cells in the presence of varying concentrations of compound. Huh7-Clone A cells were seeded in 96-well plates at a subconfluent density (9000 cells/well) in medium containing 2% FBS and incubated for 4 hours to allow attachment to occur. HCV-086 (solubilized with 100% dimethylsulfoxide [DMSO]) was added to wells using an 8-point, 3-fold serial dilution series, with a final DMSO concentration of 1% in a total volume of 200 μL. Plates were incubated for 72 hours at 37° C. and 5% CO2. Under these conditions, the cells are approximately 25% confluent at the time of seeding and 80-90% confluent on day 3. COSTAR® 96-well cell culture plates were used but other known cell culture plates may be used. After incubation, media is removed from wells and the cells are fixed to the assay plate using 0.05% glutaraldehyde (Fisher # 02957-4). The glutaraldehyde is then washed off using phosphate-buffered saline (PBS) following a 1 hour incubation and cells are blocked for non-specific antibody binding using for example SUPERBLOCK® reagent (blocking buffer) in PBS. The blocking agent is rinsed from the cells with PBS after 1 hour at 37° C., and HCV NS5A monoclonal antibody (Virostat # 1873) is added to each well containing compound. Primary antibody is incubated for 1 hour at 37° C. and rinsed 3 times with PBS containing 0.02% TWEEN-20™ before addition of Horseradish Peroxidase (HRP) conjugated secondary antibody. HRP is incubated for 1 hour at 37° C. and rinsed several times, first with PBS/TWEEN-20™ followed by PBS alone. To quantify peroxidase activity, 3,3′,5,5′-tetramethylbenzidine (TMB) substrate is added to the plate and after 30 minutes, the plates are read in an ELISA plate reader at an OD of 650 nm.
Compound dose response was measured in an 8-point dose curve diluted serially to determine the inhibitory concentration at 50% (EC50 value). […] Ranges of 50% effective concentrations (EC50s) for the representative compounds within the scope of this invention are listed in Tables 1-8. Preferred compounds have 50% effective concentrations at about 30 μM or less, more preferred compounds have 50% effective concentrations at about 5 μM or less, and most preferred compounds have 50% effective concentrations at about 0.5 μM or less.

Clone-A cells [2] = test: Crystal violet qualitative cell proliferation assay, 5 day incubation, Clone-A; type: cell-based, human; conditions: crystal violet staining
Description: (§1) The cellular toxicity of Compound A at different concentrations was assessed on different cell lines following crystal violet staining (qualitative cell proliferation assay) after 5 day incubation. Huh7 cells are human hepatoma cells. A genotype 1b replicon-containing cell line derived from Huh7 cells (Clone-A) was obtained from Apath, LLC. Clone-A cells were selected under Compound B drug pressure and a resistant clone was selected (559^R) which contained mutations in NS4B gene.

Huh-7 cells = type: cell-based; conditions: human, 5 day
Description: as §1

559^R cells = test: Crystal violet qualitative cell proliferation assay, 5 day incubation, resistant clone; type: cell-based, human; conditions: crystal violet staining
Description: as §1

Clone-A cells [3] = test: Genomic DNA fragmentation by agarose gel electrophoresis; type: cell-based, human; conditions: Huh7, Clone-A and 559^R treated
Description: DNA fragmentation is a measure of apoptotic cell death. Huh7, Clone-A and 559^R were treated with Compound B and genomic DNA fragmentation determined by agarose gel electrophoresis.

T1 sequence (Q9WMX2 1712-1972): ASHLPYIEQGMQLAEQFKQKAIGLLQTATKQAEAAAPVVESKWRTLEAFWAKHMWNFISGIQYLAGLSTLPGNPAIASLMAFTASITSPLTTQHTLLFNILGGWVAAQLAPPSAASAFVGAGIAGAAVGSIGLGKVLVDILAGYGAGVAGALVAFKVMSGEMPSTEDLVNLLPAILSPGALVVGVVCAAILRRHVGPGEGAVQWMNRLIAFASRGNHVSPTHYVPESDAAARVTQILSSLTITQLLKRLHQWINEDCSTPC

## Cc1nn(-c2nnc3c4ccccc4n(C)c3n2)c(C)c1-c1ccccc1 [Compound A, 2-(3,5-dimethyl-4-phenyl-pyrazol-1-yl)-9-methyl-9H-1,3,4,9-tetraaza-fluorene]
HCV NS4B
  binding activity towards purified HCV NS4B: demonstrated binding activity
[1]
  activity against HCV-replicon: demonstrated activity
Clone-A cells [2]
  cellular toxicity: ~3 µM
Huh-7 cells
  cellular toxicity: ~30 µM
559^R cells
  cellular toxicity: ~30 µM

## CCCCc1c(C)nn(-c2nnc3c4ccccc4n(CC)c3n2)c1C [Compound B, 2-(4-butyl-3,5-dimethyl-pyrazol-1-yl)-9-ethyl-9H-1,3,4,9-tetraaza-fluorene]
HCV NS4B
  binding activity towards purified HCV NS4B: demonstrated binding activity
[1]
  activity against HCV-replicon: demonstrated activity
Clone-A cells [3]
  genomic DNA fragmentation (apoptose): cause DNA fragmentation (apoptose) in Clone-A cells only
